# Measured values reported in patent US9833497B2, “Human originated EGF domain proteins and use of the same” (CHENGDU SOURCEBIO LIMITED-LIABILITY COMPANY, priority 2013, dated 2017).
# Key:
# Format in all cases: cell-based
# [1] = tested on: Pseudomonas aeruginosa; experiment: MIC against Gram-negative bacteria: Pseudomonas aeruginosa
# Summary of the method: (§1)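 Broth microdilution, LB medium, final inoculum 5×10^5 CFU/mL from McFarland 0.5 cultures. Recombinant human EGF domain proteins tested in two-fold steps, n=3. MIC: lowest concentration, no growth.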
# [2] = tested on: Proteus mirabilis; experiment: MIC against Gram-negative bacteria: Proteus mirabilis
# Summary of the method: as §1
# [3] = tested on: Enterobacter cloacae; experiment: MIC against Gram-negative bacteria: Enterobacter cloacae
# Summary of the method: as §1
# [4] = tested on: E. coli BL21; experiment: MIC against Gram-negative bacteria: E. coli BL21; conditions: for MIC / MIC against E. coli BL21 / MIC (μg/mL) E. coli BL21: E. coli BL21
# Summary of the method: as §1
# [5] = tested on: Serratia marcescens; experiment: MIC against Gram-negative bacteria: Serratia marcescens
# Summary of the method: as §1
# [6] = tested on: Proteus vulgaris; experiment: MIC against Gram-negative bacteria: Proteus vulgaris
# Summary of the method: as §1
# [7] = tested on: Moraxella catarrhalis; experiment: MIC against Gram-negative bacteria: Moraxella catarrhalis
# Summary of the method: as §1
# [8] = tested on: Aeromonas hydrophila; experiment: MIC against Gram-negative bacteria: Aeromonas hydrophila
# Summary of the method: as §1
# [9] = tested on: Klebsiella pneumonia; experiment: MIC against Gram-negative bacteria: Klebsiella pneumonia
# Summary of the method: as §1
# [10] = tested on: Citrobacter diversus; experiment: MIC against Gram-negative bacteria: Citrobacter diversus
# Summary of the method: as §1
# [11] = tested on: E. coli DH5α; experiment: Antibacterial activity: MIC and growth curve against E. coli DH5α in 96-well plate; conditions: minimal inhibitory concentration against E. coli DH5α; 96-well plate, 5×10^5 CFU/mL, 37° C., judged after 8 h
# Summary of the method: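 Log-phase bacteria (OD600 ~0.5) resuspended in LB at 5×10^5 CFU/mL, exposed to recombinant protein at 50, 25, 12.5 μg/mL final in triplicate, 37 °C shaking at 175 rpm. OD600 read every 30 min; MIC is lowest concentration showing no growth.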
# [12] = P. aeruginosa, 10 h cultivation at 37° C.
# [13] = P. mirabilis, 10 h cultivation at 37° C.
# [14] = E. cloacae, 10 h cultivation at 37° C.
# [15] = S. marcescens, 10 h cultivation at 37° C.
# [16] = P. vulgaris, 10 h cultivation at 37° C.
# [17] = M. catarrhalis, 10 h cultivation at 37° C.
# [18] = A. hydrophila, 10 h cultivation at 37° C.
# [19] = K. pneumonia, 10 h cultivation at 37° C.
# [20] = C. diversus, 10 h cultivation at 37° C.
# [21] = 10 h cultivation at 37° C., 5×10^5 CFU/mL, two-fold serial dilution
# [22] = Pseudomonas aeruginosa, 96-well plate, 5×10^5 CFU/mL, 37° C., 10 h
# [23] = Proteus mirabilis, 96-well plate, 5×10^5 CFU/mL, 37° C., 10 h
# [24] = Enterobacter cloacae, 96-well plate, 5×10^5 CFU/mL, 37° C., 10 h
# [25] = 96-well plate, 5×10^5 CFU/mL, 37° C., 10 h
# [26] = Serratia marcescens, 96-well plate, 5×10^5 CFU/mL, 37° C., 10 h
# [27] = Proteus vulgaris, 96-well plate, 5×10^5 CFU/mL, 37° C., 10 h
# [28] = Moraxella catarrhalis, 96-well plate, 5×10^5 CFU/mL, 37° C., 10 h
# [29] = Aeromonas hydrophila, 96-well plate, 5×10^5 CFU/mL, 37° C., 10 h
# [30] = Klebsiella pneumonia, 96-well plate, 5×10^5 CFU/mL, 37° C., 10 h
# [31] = Citrobacter diversus, 96-well plate, 5×10^5 CFU/mL, 37° C., 10 h
# [32] = P. aeruginosa, 10 h cultivation at 37° C., 5×10^5 CFU/mL
# [33] = P. mirabilis, 10 h cultivation at 37° C., 5×10^5 CFU/mL
# [34] = E. cloacae, 10 h cultivation at 37° C., 5×10^5 CFU/mL
# [35] = 10 h cultivation at 37° C., 5×10^5 CFU/mL
# [36] = S. marcescens, 10 h cultivation at 37° C., 5×10^5 CFU/mL
# [37] = P. vulgaris, 10 h cultivation at 37° C., 5×10^5 CFU/mL
# [38] = M. catarrhalis, 10 h cultivation at 37° C., 5×10^5 CFU/mL
# [39] = A. hydrophila, 10 h cultivation at 37° C., 5×10^5 CFU/mL
# [40] = K. pneumonia, 10 h cultivation at 37° C., 5×10^5 CFU/mL
# [41] = C. diversus, 10 h cultivation at 37° C., 5×10^5 CFU/mL
substance,measurement,setting,value
PRT929 (QIDECYSSPCLNDGRCIDLVNGYQCNCQPGTSGVNCE; listed as Homo sapiens),MIC,[1]; [12],12.5 µg/mL
same,MIC,[2]; [13],12.5 µg/mL
same,MIC,[3]; [14],50 µg/mL
same,MIC,[4]; 10 h cultivation at 37° C.,25 µg/mL
same,MIC,[5]; [15],12.5 µg/mL
same,MIC,[6]; [16],50 µg/mL
same,MIC,[7]; [17],50 µg/mL
same,MIC,[8]; [18],25 µg/mL
same,MIC,[9]; [19],25 µg/mL
same,MIC,[10]; [20],12.5 µg/mL
same,MIC,[11],100 µg/mL
PRT1076 (SCLTCVGHCSNGGSCTMNSKMMPECQCPPHMTGPRCE; listed as Homo sapiens),MIC P. aeruginosa,[1]; [21],12.5 µg/mL
same,MIC P. mirabilis,[2]; [21],25 µg/mL
same,MIC E. cloacae,[3]; [21],12.5 µg/mL
same,MIC E. coli BL21,[4]; [21],25 µg/mL
same,MIC S. marcescens,[5]; [21],25 µg/mL
same,MIC P. vulgaris,[6]; [21],12.5 µg/mL
same,MIC M. catarrhalis,[7]; [21],12.5 µg/mL
same,MIC A. hydrophila,[8]; [21],12.5 µg/mL
same,MIC K. pneumonia,[9]; [21],25 µg/mL
same,MIC C. diversus,[10]; [21],12.5 µg/mL
same,MIC,[11],12.5 µg/mL
PRT1238 (IGEACPKLCSGHGYCTTGAICICDESFQGDDCS; listed as Homo sapiens),MIC against P. aeruginosa,[1]; [22],50 µg/mL
same,MIC against P. mirabilis,[2]; [23],12.5 µg/mL
same,MIC against E. cloacae,[3]; [24],50 µg/mL
same,MIC against E. coli BL21,[4]; [25],12.5 µg/mL
same,MIC against S. marcescens,[5]; [26],50 µg/mL
same,MIC against P. vulgaris,[6]; [27],25 µg/mL
same,MIC against M. catarrhalis,[7]; [28],25 µg/mL
same,MIC against A. hydrophila,[8]; [29],12.5 µg/mL
same,MIC against K. pneumonia,[9]; [30],12.5 µg/mL
same,MIC against C. diversus,[10]; [31],50 µg/mL
same,MIC,[11],25 µg/mL
PRT1310 (EINSCLIHHGGCHIHAECIPTGPQQVSCSCREGYSGDGIRTCE; listed as Homo sapiens),MIC against P. aeruginosa,[1]; [22],12.5 µg/mL
same,MIC against P. mirabilis,[2]; [23],25 µg/mL
same,MIC against E. cloacae,[3]; [24],50 µg/mL
same,MIC against E. coli BL21,[4]; [25],50 µg/mL
same,MIC against S. marcescens,[5]; [26],25 µg/mL
same,MIC against P. vulgaris,[6]; [27],12.5 µg/mL
same,MIC against M. catarrhalis,[7]; [28],50 µg/mL
same,MIC against A. hydrophila,[8]; [29],12.5 µg/mL
same,MIC against K. pneumonia,[9]; [30],25 µg/mL
same,MIC against C. diversus,[10]; [31],25 µg/mL
same,MIC,[11],12.5 µg/mL
PRT17 (AGHPCTRASGHPCLNGASCVPREAAYVCLCPGGFSGPHCE; listed as Homo sapiens),MIC (μg/mL) P. aeruginosa,[1]; [22],12.5 µg/mL
same,MIC (μg/mL) P. mirabilis,[2]; [23],12.5 µg/mL
same,MIC (μg/mL) E. cloacae,[3]; [24],50 µg/mL
same,MIC (μg/mL) E. coli BL21,[4]; [25],12.5 µg/mL
same,MIC (μg/mL) S. marcescens,[5]; [26],25 µg/mL
same,MIC (μg/mL) P. vulgaris,[6]; [27],50 µg/mL
same,MIC (μg/mL) M. catarrhalis,[7]; [28],25 µg/mL
same,MIC (μg/mL) A. hydrophila,[8]; [29],12.5 µg/mL
same,MIC (μg/mL) K. pneumonia,[9]; [30],25 µg/mL
same,MIC (μg/mL) C. diversus,[10]; [31],50 µg/mL
same,MIC,[11],12.5 µg/mL
PRT194 (CRSKCHGHGVCDSNRHCYCEEGWAPPDCT; listed as Homo sapiens),MIC (μg/mL) P. aeruginosa,[1]; [32],12.5 µg/mL
same,MIC (μg/mL) P. mirabilis,[2]; [33],100 µg/mL
same,MIC (μg/mL) E. cloacae,[3]; [34],12.5 µg/mL
same,MIC (μg/mL) E. coli BL21,[4]; [35],25 µg/mL
same,MIC (μg/mL) S. marcescens,[5]; [36],12.5 µg/mL
same,MIC (μg/mL) P. vulgaris,[6]; [37],25 µg/mL
same,MIC (μg/mL) M. catarrhalis,[7]; [38],100 µg/mL
same,MIC (μg/mL) A. hydrophila,[8]; [39],12.5 µg/mL
same,MIC (μg/mL) K. pneumonia,[9]; [40],25 µg/mL
same,MIC (μg/mL) C. diversus,[10]; [41],12.5 µg/mL
same,MIC,[11],12.5 µg/mL
PRT418 (DINECSSSPCSQECANVYGSYQCYCRRGYQLSDVDGVTCE; listed as Homo sapiens),MIC,[1]; [32],12.5 µg/mL
same,MIC,[2]; [33],12.5 µg/mL
same,MIC,[3]; [34],12.5 µg/mL
same,MIC,[4]; [35],12.5 µg/mL
same,MIC,[5]; [36],50 µg/mL
same,MIC,[6]; [37],25 µg/mL
same,MIC,[7]; [38],25 µg/mL
same,MIC,[8]; [39],25 µg/mL
same,MIC,[9]; [40],50 µg/mL
same,MIC,[10]; [41],50 µg/mL
same,MIC,[11],12.5 µg/mL
PRT948 (DINECLSNPCSSEGSLDCIQLTNDYLCVCRSAFTGRHCE; listed as Homo sapiens),MIC,[1]; [12],50 µg/mL
same,MIC,[2]; [13],25 µg/mL
same,MIC,[3]; [14],50 µg/mL
same,MIC,[4]; 10 h cultivation at 37° C.,12.5 µg/mL
same,MIC,[5]; [15],50 µg/mL
same,MIC,[6]; [16],12.5 µg/mL
same,MIC,[7]; [17],50 µg/mL
same,MIC,[8]; [18],25 µg/mL
same,MIC,[9]; [19],12.5 µg/mL
same,MIC,[10]; [20],12.5 µg/mL
same,MIC,[11],50 µg/mL
